We go through one compound from patent US20110092488A1, “Quninoline Methanol Compounds for the Treatment and Prevention of Parasitic Infections” (priority 2005, published 2011).

≈ marks a conversion by molar mass, not a printed value. Some results are limits rather than exact numbers.

One series concerns AMRU1 strain of P. vivax. In words: Efficacy in P. vivax-challenged Aotus monkeys. The format is in vivo, Plasmodium vivax in Aotus lemurinus lemurinus. The following applies: oral; for Outcome: Aotus. How it is done:
The P. berghei-mouse efficacy data were obtained from the WRAIR chemical information system (subcutaneous testing) or from recent tests conducted at AFRIMS, Thailand or at the University of Miami using a modified version of the Thompson test. Groups of five mice were inoculated through i.p. injection on day 0 (usually with 1×106 P. berghei-parasitized erythrocytes). The drugs in Table 1 were administered either subcutaneously or orally for three days (usually on days 3-5) at doses of 1.25-160 mg/kg in two to four fold increments. Cure was defined as survival until day 60 (subcutaneous dosing) or day 31 post-treatment (oral dosing). […] The minimum effective dose was the lowest dose level that cured at least one of five mice. The Aotus studies were performed according to Obaldia; Detection of Klebsiella pnuumoniae antibodies in Aotus l. lemurinus (Panamanian owl monkey) using an enzyme linked immunosorbent assay (ELIA) test; Lab Anim (25)133-141 (1991) and Obaldia et al., WR 238605, chloroquine, and their combinations as blood schizonticides against a chloroquine-resistant strain of Plasmodium vivax in Aotus monkeys; Am. J. Trop. Med. Hyg. (56)508-510 (1997), which are incorporated by reference, herein. Groups of two Aotus lemurinus 6 lemurinus of the karyotype VIII or IX (27) male and female monkeys with weights ranging from 742-970 g were inoculated with 5×10^6 parasites of either the FVO strain of P. falciparum or the AMRU1 strain of P. vivax. Both of these strains are chloroquine resistant. […] Monkeys were examined and thick Giemsa-stained blood smears were prepared and enumerated daily (17) to monitor the course of infection. […] In some instances, a high dose of the test drug was used to retreat monkeys instead of the mefloquine rescue. Monkeys are considered cured if they are parasite free 90 days post treatment. […] Plasma samples were taken from the monkeys in some studies for quantification of metabolites. Additional blood samples were taken as appropriate for complete blood counts and serum chemistry. Research was conducted in compliance with the Animal Welfare Act and other federal statutes and regulations relating to animals and experiments involving animals and adheres to principles stated in the Guide for the Care and Use of Laboratory Animals, NRC Publication, 1996 edition (34).

The test system of a further series is P. falciparum W2. Kind of series: In vitro antimalarial activity against P. falciparum W2. In kind it is cell-based, Plasmodium falciparum. How it is done:
The in vitro activities of AAQMs against P. falciparum strains W2, D6, TM91C235 and TM90C2A were evaluated using the method of Desjardins et al. as modified by Milhous et al. W2 is chloroquine resistant and mefloquine sensitive, D6 is chloroquine sensitive but naturally less susceptible to mefloquine, TM91C235 is resistant to mefloquine, chloroquine and pyrimethamine as is TM90C2A, however this latter parasite is a two pfmdr1 copy strain. We routinely run mefloquine in this screen as a control to ensure assay validity.

A further series concerns P. falciparum TM91C235. Kind of series: In vitro antimalarial activity against P. falciparum TM91C235. The format is cell-based, Plasmodium falciparum.
The conditions of series [1]: Aotus, 10 mg/kg/day oral x7.
For series [2], the system named is Balb/c 3T3 mouse fibroblast cells. In words: 3T3 neutral red uptake (NRU) phototoxicity test. The format is cell-based. From the text: A pharmacophore for phototoxicity was developed to be used as an in silico screening tool to determine the minimum phototoxic concentration for a number of AAQMS (WR069878 and those indicated in Table 5). Minimum phototoxic concentration in a yeast assay for a number of AAQMS, as per Ison et al.; Phototoxicity of Quinoline methanols and other drugs in mice and yeast; J. Invest. Dermatol. (52)193-198 (1969) were used to generate a three-dimensional pharmacophore model using the HypoGen algorithm of the […]® (Accelrys software Inc.) methodology as per Bhattacharjee et al.; A 3D QSAR pharmacophore model and quantum chemical structure—activity analysis of chloroquine(CQ)-resistance reversal; J. Chem Inf. Comput Sci. (42) 1212-1220 (2002), and Dow et al.; as discussed in Antimicrob Agents Chemother. (48)2624-2632 (2004), cited above, both Bhattacharjee et al. and Dow et al, incorporated herein, by reference. The structures of clinically used quinoline methanols were mapped onto the pharmacophores and estimated values for minimum phototoxic concentration were generated. The 3T3 neutral red uptake (NRU) phototoxicity test, conducted by MB Research Laboratories (Spinnerstown, Pa.), was used to identify quinoline methanols (WR069878 and those in Table 5) that have the potential to exert in vivo phototoxicity after systemic application. Briefly, the central 60 wells of two 96-well plates per AAQM were seeded with Balb/c 3T3 mouse fibroblast cells and maintained in culture for 24 hrs. These plates were then pre-incubated with a range of eight different concentrations of test compound (six wells per concentration) for one hour. Next, one plate was treated with a UVA dose of 5 J/cm2 by irradiating for 50 min at 1.7 mW/cm2, whereas the other plate remained non-treated and in the dark. Next, the treatment medium was replaced with culture medium and cell viability was determined after 24 hrs by measuring neutral red uptake for 3 hrs. Finally, the 3T3 NRU Phototox Prediction Software (version 2.0, ZEBET) was used to calculate EC50 values and Photo-Irritant Factors (PIF) for each compound. […]

For `CCCCN(CCCC)CC(O)c1cc(-c2ccc(Cl)cc2)nc2cc(Cl)c(C)cc12` (centres unmarked) [WR069878], the Outcome entry with AMRU1 strain of P. vivax (0.625 mg/kg/day x 3 days, primary treatment) was “Failure”; in the series with AMRU1 strain of P. vivax (2.5 mg/kg/day x 3 days, primary treatment) it was “Failure”; in the series on AMRU1 strain of P. vivax (10 mg/kg/day x 3 days, primary treatment, number in brackets = days before recrudescence, 10 mg/kg/day), “Clear (7) and Cure”; in the series with AMRU1 strain of P. vivax (20 mg/kg/day x 1 day, retreatment, one monkey per line, number in brackets = days before recrudescence, 20 mg/kg/day), “Cure and Clear (8)”; in the series on AMRU1 strain of P. vivax (40 mg/kg/day x 3 days, retreatment), “Cure”; in the series on AMRU1 strain of P. vivax (80 mg/kg/day x 1 day, retreatment, number in brackets = days before recrudescence, 80 mg/kg/day) it was “Clear (11) and Cure”. Further, the “Outcome in P. vivax infections” value with AMRU1 strain of P. vivax (three day regimen) is “cures P. vivax infections”. In the series with P. falciparum W2, the “IC90 against W2” value was 0.49 ng/mL (≈ 0.00107 µM). In the series on P. falciparum TM91C235, the “Activity against P. falciparum TM91C235 (IC50 in ng/ml)” value amounted to 1.5 ng/mL. Further, in the series on P. falciparum TM91C235 (Table 2), the “TM91C235 IC90” value was determined as 3.3 ng/mL. In the series on P. falciparum TM91C235 (text b26), the “IC90 against TM91C235” value is 11.7 ng/mL (≈ 0.0255 µM). For the same compound, the “Mean peak concentration” value in series [1] is 65 ng/mL. Besides, the “Plasma conc on day 1 (ng/ml) 2 h” value in series [1] (day 1, 2 h) worked out at 38 ng/mL. Moreover, in series [1] (day 1, 24 h), the “Plasma conc on day 1 (ng/ml) 24 h” value stood at 16 ng/mL. Further, the “Plasma conc. on day 7 (ng/ml) 2 h” value in series [1] (day 7, 2 h) was determined as 91 ng/mL. For the same compound, the “Plasma conc. on day 7 (ng/ml) 24 h” value in series [1] (day 7, 24 h) stood at 40 ng/mL. Further, in series [2], the “Photo Irritant Factor (PIF)” value is recorded as above 100.
